Source: ChEMBL document CHEMBL1201862, “PubChem BioAssay data set” (2004)
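Five compound concentrations were applied to cells in 96-well plates for 48 hours; endpoints were derived by simple linear interpolation of the resulting dose-response curve. GI50 is the concentration that inhibits growth by half.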 Calls of active or inactive are those of the source. Rule as the data show it: active = GI50 up to about 1.1 µM and inactive = higher.

Key:
Assay in all cases: NCI anticancer screen, dose series, 48 h
A549 = tested on: A549
HCC 2998 = tested on: HCC 2998
HOP-92 = tested on: HOP-92
Hs-578T = tested on: Hs-578T
K562 = tested on: K562
LOX IMVI = tested on: LOX IMVI
MDA-N = tested on: MDA-N
MOLT-4 = tested on: MOLT-4
NCI-H460 = tested on: NCI-H460
OVCAR-4 = tested on: OVCAR-4
PC-3 = tested on: PC-3
SF-539 = tested on: SF-539
SK-MEL-5 = tested on: SK-MEL-5
SK-OV-3 = tested on: SK-OV-3
SN12C = tested on: SN12C
SNB-19 = tested on: SNB-19
SR = tested on: SR
NCI-H522 = tested on: NCI-H522
OVCAR-8 = tested on: OVCAR-8

Measured: GI50

O=C(C=P(c1ccccc1)(c1ccccc1)c1ccccc1)c1ccc(-c2cccc([N+](=O)[O-])c2)cc1
inactive: A549 3.64 µM | HCC 2998 1.66 µM | HOP-92 2.16 µM | Hs-578T 4.9 µM | K562 3.35 µM | LOX IMVI 2.11 µM | MDA-N 2.88 µM | MOLT-4 2.96 µM | NCI-H460 1.91 µM | OVCAR-4 2.61 µM | PC-3 3.57 µM | SF-539 4.46 µM | SK-MEL-5 2.22 µM | SK-OV-3 4.03 µM | SN12C 3.13 µM | SNB-19 5.07 µM | SR 3.69 µM

Cn1c(N)nc2c(nc(OCc3ccccc3)n2C2OC(CO)C(O)C2O)c1=O (centres undefined)
inactive: A549 > 100 µM | HOP-92 > 100 µM | Hs-578T > 100 µM | K562 > 100 µM | LOX IMVI > 100 µM | MDA-N > 100 µM | MOLT-4 71.8 µM | NCI-H460 > 100 µM | NCI-H522 > 100 µM | OVCAR-4 > 100 µM | OVCAR-8 > 100 µM | PC-3 > 100 µM | SK-MEL-5 > 100 µM | SK-OV-3 > 100 µM | SN12C > 100 µM | SNB-19 > 100 µM | SR > 100 µM

COC(=O)c1cc(/C=C2\Cc3cc4c(cc3C2=O)CCC4)cc2c1CCC2
inactive: A549 > 100 µM | HCC 2998 > 100 µM | Hs-578T > 100 µM | K562 > 100 µM | LOX IMVI > 100 µM | MDA-N > 100 µM | MOLT-4 > 100 µM | NCI-H460 > 100 µM | NCI-H522 > 100 µM | OVCAR-4 41.3 µM | OVCAR-8 > 100 µM | PC-3 > 100 µM | SF-539 > 100 µM | SK-OV-3 > 100 µM | SN12C > 100 µM | SNB-19 > 100 µM | SR > 100 µM

C=C1CN(C2=NCCO2)C1
inactive: A549 > 100 µM | HCC 2998 > 100 µM | HOP-92 > 100 µM | Hs-578T > 100 µM | K562 > 100 µM | LOX IMVI > 100 µM | MDA-N > 100 µM | MOLT-4 > 100 µM | NCI-H460 > 100 µM | OVCAR-4 > 100 µM | OVCAR-8 > 100 µM | PC-3 > 100 µM | SF-539 > 100 µM | SK-MEL-5 > 100 µM | SN12C > 100 µM | SNB-19 > 100 µM | SR > 100 µM

COc1ccc(CNC(C)C(=O)O)cc1 (centres undefined)
inactive: A549 > 100 µM | HOP-92 > 100 µM | Hs-578T > 100 µM | K562 > 100 µM | LOX IMVI > 100 µM | MDA-N > 100 µM | MOLT-4 > 100 µM | NCI-H460 > 100 µM | NCI-H522 > 100 µM | OVCAR-4 > 100 µM | OVCAR-8 > 100 µM | PC-3 > 100 µM | SF-539 > 100 µM | SK-MEL-5 > 100 µM | SK-OV-3 > 100 µM | SN12C > 100 µM | SNB-19 > 100 µM | SR > 100 µM

O=C(NCCC(F)(F)C(F)(F)C(F)(F)C(F)(F)F)NC1OC(CO)C(O)C(O)C1O (centres undefined)
inactive: A549 > 100 µM | HCC 2998 > 100 µM | HOP-92 > 100 µM | Hs-578T > 100 µM | K562 > 100 µM | LOX IMVI > 100 µM | MDA-N > 100 µM | MOLT-4 > 100 µM | NCI-H460 > 100 µM | OVCAR-4 > 100 µM | PC-3 > 100 µM | SF-539 > 100 µM | SK-MEL-5 > 100 µM | SK-OV-3 > 100 µM | SN12C > 100 µM | SNB-19 > 100 µM | SR > 100 µM

c1cncc(C(Nc2cccc3cccnc23)Nc2cccc3cccnc23)c1
inactive: A549 > 100 µM | HCC 2998 > 100 µM | HOP-92 > 100 µM | Hs-578T > 100 µM | K562 > 100 µM | LOX IMVI > 100 µM | MDA-N > 100 µM | NCI-H460 > 100 µM | NCI-H522 28.8 µM | OVCAR-8 > 100 µM | PC-3 > 100 µM | SF-539 > 100 µM | SK-MEL-5 > 100 µM | SK-OV-3 > 100 µM | SN12C > 100 µM | SNB-19 > 100 µM

CC1=C(C#N)S(=O)(=O)c2c(oc(C)c2C)N1
inactive: A549 > 100 µM | HCC 2998 > 100 µM | HOP-92 > 100 µM | Hs-578T > 100 µM | K562 > 100 µM | LOX IMVI > 100 µM | MDA-N > 100 µM | MOLT-4 > 100 µM | NCI-H460 > 100 µM | NCI-H522 > 100 µM | OVCAR-4 > 100 µM | OVCAR-8 > 100 µM | PC-3 > 100 µM | SF-539 > 100 µM | SK-MEL-5 > 100 µM | SK-OV-3 > 100 µM | SN12C > 100 µM | SNB-19 > 100 µM

CC1=Nc2sc3c(c2C2=NCCN12)CCCC3
inactive: HCC 2998 29.9 µM | Hs-578T 27.5 µM | K562 23.6 µM | LOX IMVI 17.6 µM | MDA-N 22.3 µM | MOLT-4 26.1 µM | NCI-H460 19.7 µM | NCI-H522 19.5 µM | OVCAR-4 42.4 µM | OVCAR-8 15.3 µM | PC-3 20 µM | SK-MEL-5 28.2 µM | SN12C 29.9 µM | SNB-19 39.6 µM | SR 23.2 µM

CC(=O)Oc1c(C)cc2c(c1C)C(C)CN2C(C)=O (centres undefined)
inactive: A549 > 100 µM | HCC 2998 > 100 µM | HOP-92 > 100 µM | Hs-578T > 100 µM | K562 > 100 µM | LOX IMVI > 100 µM | MDA-N > 100 µM | MOLT-4 > 100 µM | NCI-H460 > 100 µM | NCI-H522 > 100 µM | OVCAR-4 > 100 µM | OVCAR-8 > 100 µM | PC-3 > 100 µM | SF-539 > 100 µM | SK-MEL-5 > 100 µM | SK-OV-3 > 100 µM | SN12C > 100 µM | SNB-19 > 100 µM

CCN(CC)C(=O)COc1cc2c(O)c3c(O)c(C)c4c(c13)C(=O)C(C)(OC=CC(OC)C(C)C(OC(C)=O)C(C)C(O)C(C)C(O)C(C)C=CC=C(C)C(=O)N2)O4 (centres undefined)
inactive: A549 > 100 µM | HCC 2998 > 100 µM | HOP-92 > 100 µM | Hs-578T > 100 µM | K562 > 100 µM | LOX IMVI > 100 µM | MDA-N > 100 µM | MOLT-4 > 100 µM | NCI-H460 > 100 µM | OVCAR-4 > 100 µM | OVCAR-8 > 100 µM | PC-3 > 100 µM | SK-MEL-5 > 100 µM | SK-OV-3 > 100 µM | SN12C > 100 µM | SNB-19 > 100 µM | SR > 100 µM

c1ccc2c(c1)c1c(n2CCOCCN2CCCCC2)CCCC1
inactive: A549 15.1 µM | HCC 2998 11.5 µM | HOP-92 8.2 µM | Hs-578T 14.5 µM | K562 6.18 µM | LOX IMVI 13.3 µM | MDA-N 14.8 µM | MOLT-4 10.5 µM | NCI-H460 11.9 µM | OVCAR-4 11.1 µM | OVCAR-8 14 µM | PC-3 9.04 µM | SF-539 16.6 µM | SK-MEL-5 8.43 µM | SK-OV-3 18.7 µM | SN12C 13.7 µM | SR 13.8 µM
